Results taken from US20120302748A1, “TREATMENT OR PROPHYLAXIS OF PROLIFERATIVE CONDITIONS” (THE UNIVERSITY COURT OF THE UNIVERSITY OF DUNDEE, priority 2009, published 2012).
Where two headings read alike, the source gives them in different places.

Tests used:
CYP1B1 [1] = molecular target: T1, CYP1B1 (Homo sapiens, UniProt Q16678); experiment: Supersomal CYP1B1 fragmentation of coumarin model prodrugs (kinetic fluorimetry); type: biochemical; set-up: purchased BD Gentest, Oxford, UK; settings: for Specific fragmentation activity CYP1B1: 10 μmol dm^−3 prodrug, 10 pmol enzyme, pH 7.4, 37° C., mean ± standard deviation of three
T1 sequence (Q16678 1-543): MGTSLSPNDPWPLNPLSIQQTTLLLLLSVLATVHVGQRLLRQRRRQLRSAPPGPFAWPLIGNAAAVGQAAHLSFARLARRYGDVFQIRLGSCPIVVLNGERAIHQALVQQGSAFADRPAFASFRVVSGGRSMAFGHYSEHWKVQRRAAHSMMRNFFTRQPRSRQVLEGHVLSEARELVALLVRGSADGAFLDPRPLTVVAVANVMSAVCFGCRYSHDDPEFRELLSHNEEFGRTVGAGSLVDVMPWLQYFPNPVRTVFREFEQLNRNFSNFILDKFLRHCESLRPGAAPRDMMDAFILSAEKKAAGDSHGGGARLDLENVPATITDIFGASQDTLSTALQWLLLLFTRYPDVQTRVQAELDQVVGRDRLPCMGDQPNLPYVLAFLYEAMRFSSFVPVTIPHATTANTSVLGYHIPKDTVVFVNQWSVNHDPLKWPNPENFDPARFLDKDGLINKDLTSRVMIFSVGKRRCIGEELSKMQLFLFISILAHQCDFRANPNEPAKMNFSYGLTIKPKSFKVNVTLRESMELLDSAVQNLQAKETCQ

CYP1B1 [2] = molecular target: T1, CYP1B1; experiment: in vitro
CYP1B1 [3] = molecular target: T1, CYP1B1; experiment: CYP1B1 substrate prediction model (Gaussian Kernel weighted k-NN); settings: predicted versus actual
UT-SCC-14 tumour cells = experiment: Cytotoxicity in primary HNSCC tumour cell line UT-SCC-14 (MTS assay); settings: Homo sapiens, 72 h, read-out: cytotoxicity IC50 UT-SCC-14
in vitro = settings: Chinese hamster
CYP1A1 [4] = experiment: in vitro; settings: Chinese hamster
CHO/CYP1B1 cells [5] = experiment: cells; settings: Cricetulus griseus
CYP1B1 [6] = molecular target: T1, CYP1B1; experiment: CYP1B1 substrate inhibition, P450-Glo Luciferin-CEE luminescent assay; settings: human
CHO/CYP1B1 cells [7] = test system: CHO/CYP1B1 cells
[8] = test system: human liver microsomes (HLM); experiment: Pooled human liver microsome (HLM) fragmentation of coumarin model prodrugs; type: in vitro ADME; settings: 60 μl HLM in 1.5 ml, pH 7.4, 37° C.; mean ± standard deviation of three
CYP1A2 = molecular target: T2, CYP1A2 (Homo sapiens, UniProt P05177); experiment: Supersomal CYP1A2 fragmentation of coumarin model prodrugs (kinetic fluorimetry); type: biochemical; settings: 10 μmol dm^−3 prodrug, 10 pmol enzyme, pH 7.4, 37° C.; mean ± standard deviation of three
T2 construct: purchased BD Gentest, Oxford, UK
T2 sequence (P05177 2-516 limits assumed): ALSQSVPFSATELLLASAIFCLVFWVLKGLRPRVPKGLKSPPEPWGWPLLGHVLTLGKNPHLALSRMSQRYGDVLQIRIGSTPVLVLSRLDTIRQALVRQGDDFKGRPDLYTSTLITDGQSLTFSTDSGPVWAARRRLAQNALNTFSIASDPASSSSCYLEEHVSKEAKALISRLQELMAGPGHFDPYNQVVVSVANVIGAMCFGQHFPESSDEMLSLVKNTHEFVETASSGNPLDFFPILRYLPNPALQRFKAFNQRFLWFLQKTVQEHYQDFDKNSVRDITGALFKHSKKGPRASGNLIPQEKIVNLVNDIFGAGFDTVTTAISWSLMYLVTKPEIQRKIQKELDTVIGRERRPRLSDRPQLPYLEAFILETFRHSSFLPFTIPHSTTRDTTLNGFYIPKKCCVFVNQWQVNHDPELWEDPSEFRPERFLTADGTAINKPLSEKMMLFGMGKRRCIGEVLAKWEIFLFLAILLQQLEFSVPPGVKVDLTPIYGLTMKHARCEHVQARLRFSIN

CYP1A1 [9] = molecular target: T3, CYP1A1 (Homo sapiens, UniProt P04798); experiment: Supersomal CYP1A1 fragmentation of coumarin model prodrugs (kinetic fluorimetry); type: biochemical; set-up: purchased BD Gentest, Oxford, UK; settings: 10 μmol dm^−3 prodrug, 10 pmol enzyme, pH 7.4, 37° C.; mean ± standard deviation of three
T3 sequence (P04798 1-512): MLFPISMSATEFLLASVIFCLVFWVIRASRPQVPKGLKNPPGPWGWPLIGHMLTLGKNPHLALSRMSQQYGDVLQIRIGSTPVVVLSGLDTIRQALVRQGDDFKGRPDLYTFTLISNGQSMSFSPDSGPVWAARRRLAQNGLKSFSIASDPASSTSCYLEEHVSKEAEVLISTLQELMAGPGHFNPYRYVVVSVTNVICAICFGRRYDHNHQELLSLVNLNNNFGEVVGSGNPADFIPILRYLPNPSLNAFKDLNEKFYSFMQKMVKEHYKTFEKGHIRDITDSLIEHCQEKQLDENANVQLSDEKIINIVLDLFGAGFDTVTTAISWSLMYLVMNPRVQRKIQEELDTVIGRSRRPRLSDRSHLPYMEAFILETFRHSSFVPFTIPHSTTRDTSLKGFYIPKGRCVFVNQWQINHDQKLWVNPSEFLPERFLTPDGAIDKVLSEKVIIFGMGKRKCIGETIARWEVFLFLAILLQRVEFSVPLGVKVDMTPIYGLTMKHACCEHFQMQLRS

inhibition at 0.5 mmol dm^−3 (CYP1B1 [2])	% CYP1B1 substrate inhibition accuracy (CYP1B1 [3])	SMILES	Specific fragmentation activity CYP1B1 (CYP1B1 [1])	Specific fragmentation activity HLM [8]	Specific fragmentation activity CYP1A2 (CYP1A2)	also measured
–	–	Cc1cc(=O)oc2cc(OCc3cc4cc(Cl)ccc4o3)ccc12 [VG028-05, 7-((5-chlorobenzofuran-2-yl)methoxy)-4-methyl-2H-chromen-2-one]	6.67 ± 0.01 pmol coumarin min^−1 pmol cytochrome P450^−1	–	–	–
–	–	Cc1cc(=O)oc2cc(OCc3cc4cc(Br)ccc4o3)ccc12 [VG035-04, 7-((5-bromobenzofuran-2-yl)methoxy)-4-methyl-2H-chromen-2-one]	8.85 ± 0.28 pmol coumarin min^−1 pmol cytochrome P450^−1	–	–	–
72.34 ± 0.56%	95%	Oc1ccc(C=Cc2cc(O)cc(O)c2)cc1 [resveratrol]	–	–	–	–
–	–	COc1cc(OC)c2oc(COC(=O)Nc3ccc4c(C)cc(=O)oc4c3)cc2c1 [VG041-05, (5,7-dimethoxybenzofuran-2-yl)methyl 4-methyl-2-oxo-2H-chromen-7-ylcarbamate]	no release	no release	no release	–
–	–	Cc1cc(=O)oc2cc(NC(=O)OCc3cc4ccccc4o3)ccc12 [SU018-03, benzofuran-2-ylmethyl 4-methyl-2-oxo-2H-chromen-7-ylcarbamate]	no release	no release	no release	–
–	–	COc1cccc2cc(COc3ccc4c(C)cc(=O)oc4c3)oc12 [VG029-05, 7-((7-methoxybenzofuran-2-yl)methoxy)-4-methyl-2H-chromen-2-one]	6.45 ± 1.15 pmol coumarin min^−1 pmol cytochrome P450^−1	–	–	–
–	–	COc1ccc2oc(COC(=O)Nc3ccc4c(C)cc(=O)oc4c3)cc2c1 [VG032-05, (5-methoxybenzofuran-2-yl)methyl 4-methyl-2-oxo-2H-chromen-7-ylcarbamate]	1.53±0.09 pmol coumarin min^−1 pmol cytochrome P450^−1	3.21 ± 0.25 pmol coumarin min^−1 pmol cytochrome P450^−1	no release	CYP1B1 specific fragmentation activity, fold lower than VG027-05 (CYP1B1 [1]; carbamate linker versus ether linker): ~6 fold
–	–	Cc1cc(=O)oc2cc(OCc3cc4ccccc4o3)ccc12 [SU010A, 7-(benzofuran-2-ylmethoxy)-4-methyl-2H-chromen-2-one]	5.19 ± 0.15 pmol coumarin min^−1 pmol cytochrome P450^−1	22.8 ± 0.69 pmol coumarin min^−1 pmol cytochrome P450^−1	–	–
–	–	O=P(O)(NCCCl)NCCCl [Cl-IPM, N,N-bis(2-chloro-ethyl)phosphoramide, reference compound]	–	–	–	IC50 (CHO/CYP1B1 cells [7]; Chinese hamster): 8 ± 5 nM
–	–	COc1ccc2oc(COc3ccc4c(C)cc(=O)oc4c3)cc2c1 [VG027-05, 7-((5-methoxybenzofuran-2-yl)methoxy)-4-methyl-2H-chromen-2-one]	11.83 ± 0.15 pmol coumarin min^−1 pmol cytochrome P450^−1	8.98 ± 0.49 pmol coumarin min^−1 pmol cytochrome P450^−1	–	–
–	–	Cc1cc(=O)oc2cc(OCc3cc4cc(F)ccc4o3)ccc12 [VG015-05, 7-((5-fluorobenzofuran-2-yl)methoxy)-4-methyl-2H-chromen-2-one]	3.16 ± 0.28 pmol coumarin min^−1 pmol cytochrome P450^−1	–	–	–
2.89 ± 0.15%	68%	Nc1ccc(S(=O)(=O)Nc2ccnn2-c2ccccc2)cc1 [sulfaphenazole]	–	–	–	–
–	–	Cc1cc(=O)oc2cc(NC(=O)OCc3cc4cc(Br)ccc4o3)ccc12 [VG036-05, (5-bromobenzofuran-2-yl)methyl 4-methyl-2-oxo-2H-chromen-7-ylcarbamate]	no release	no release	no release	Specific fragmentation activity CYP1A1 (CYP1A1 [9]): no release
92.13 ± 0.56%	95%	CCOc1ccc2nc3ccc(=O)cc-3oc2c1 [ethoxyresorufin, 7-ethoxyresorufin]	–	–	–	–
1.63 ± 0.34%	64%	C=C[C@H]1C[N@@]2CC[C@H]1C[C@@H]2[C@@H](O)c1ccnc2ccc(OC)cc12 [quinidine]	–	–	–	–
–	–	COc1cc(OC)c2oc(COC(=O)Nc3ccn(C4OC(CO)C(O)C4(F)F)c(=O)n3)cc2c1 (stereo not drawn) [SU048-04, (5,7-dimethoxybenzofuran-2-yl)methyl 1-(3,3-difluoro-4-hydroxy-5-(hydroxymethyl)-tetrahydrofuran-2-yl)-2-oxo-1,2-dihydropyrimidin-4-ylcarbamate]	–	–	–	IC50 (UT-SCC-14 tumour cells): 940 ± 20 nM

SMILES	inhibition at 0.5 mmol dm^−3 (CYP1B1 [2])	% CYP1B1 substrate inhibition accuracy (CYP1B1 [3])	Specific fragmentation activity CYP1B1 (CYP1B1 [1])	Specific fragmentation activity HLM [8]	Specific fragmentation activity CYP1A2 (CYP1A2)	also measured
COc1cc(OC)c2oc(COP(=O)(NCCCl)NCCCl)cc2c1 [SU025-04]	–	96%	–	–	–	IC50 (UT-SCC-14 tumour cells): 50 ± 10 nM; IC50 (in vitro; Cytotoxicity (IC50) CHO 72 h): 15.2 ± 0.2 µM; IC50 (in vitro; Cytotoxicity (IC50) CHO 96 h): 10.1 ± 0.3 µM; IC50 (in vitro; cytotoxicity IC50 in wild-type CHO cells): ≥ 10 µM; IC50 (CYP1A1 [4]): 25.5 ± 1 µM; IC50 (CHO/CYP1B1 cells [5]; 72 h, read-out: Cytotoxicity (IC50) CHO/CYP1B1 72 h): 9 ± 5 nM; IC50 (CHO/CYP1B1 cells [5]; 96 h, read-out: Cytotoxicity (IC50) CHO/CYP1B1 96 h): 3 ± 2 nM; inhibition at 0.5 mmol dm^−3 (CYP1B1 [6]): 91.22 ± 0.48%; IC50 ratio 72 h (CHO / CHO/CYP1B1) (CHO/CYP1B1 cells [7]): 1689
Cc1cc(=O)oc2cc(OCc3cc4cc(F)cc(F)c4o3)ccc12 [VG016-05, 7-((5,7-difluorobenzofuran-2-yl)methoxy)-4-methyl-2H-chromen-2-one]	2.45 ± 0.32%	82%	no release	no release	no release	Specific fragmentation activity CYP1A1 (CYP1A1 [9]): no release
COc1cc(OC)c2oc(COc3ccc4c(C)cc(=O)oc4c3)cc2c1 [VG035-05, 7-((5,7-dimethoxybenzofuran-2-yl)methoxy)-4-methyl-2H-chromen-2-one]	97.34 ± 0.32%	96%	13.65±1.00 pmol coumarin min^−1 pmol cytochrome P450^−1	no release	no release	Specific fragmentation activity CYP1A1 (CYP1A1 [9]): no release
